Assay results reported in patent US20110118224A1, “USE OF STEROID SULFATASE INHIBITORS FOR THE TREATMENT OF PRETERM LABOR” (priority 2008, published 2011).

Experiments:
[1] = Placental barrier crossing ability measurement (whole body autoradiography of 14C-labeled compound); format: in vivo, rat; details: for Passage of the placental barrier: compound and/or its main metabolite
Method: The ability of a steroid sulfatase inhibitor according to the invention to cross the placental barrier can be investigated as follows. This assay was performed with a steroid sulfatase inhibitor according to the invention (Estradiol Sulfamate or E2MATE) which is used for the treatment of symptoms related to estrogen deficiency in postmenopausal or hysterectomized women.
Six female albino rats received a single intravenous bolus dose of 0.47 mg ^14C-labeled Estradiol Sulfamate per kg. Six female albino, 3 pregnant albino and 4 female pigmented rats received 1 mg ^14C-labeled Estradiol Sulfamate per kg as an intragastic dose. […] Animals were deeply frozen in a mixture of hexane and dry ice and embedded into a block of carboxymethyl cellulose, which was frozen and stored at approximately −20° C. External standards were used for semi-quantitative evaluation of radioluminograms and were prepared by spiking an erythrocyte concentrate with different concentrations of ^14C-radioactivity. Pores were drilled into a separate block of carboxymethyl cellulose, filled with external standards and frozen at approximately −20° C. Whole body sagittal sections of 50 μm thickness were taken through each animal and the external standard block using a Leica CM 3600 cryomicrotome. After freeze drying of the sections in the cryostat for a minimum time of 48 hours, they were exposed to an Imaging Plate (IP) for a period of 4 to 24 hours and the IP was scanned using the bioimaging analyzer BAS 2000. For evaluation, the external standard samples were related to a colored scale using the software AIDA (Advanced Image Data Analysis, version 3.10, Raytest, Germany), each color representing a specific radioactive concentration (MBq). The different tissues were compared semi-quantitatively to the external standards and concentration ranges were determined.

[2] = test system: time-mated female Sprague-Dawley rats; test: Developmental toxicity in the rat; format: in vivo
Source text: The safety of a use of a steroid sulfatase inhibitor according to the invention, measured by no or minor effects induced on foetus development during gestation in pregnant rat can be investigated as follows.
The effects of a steroid sulfatase inhibitor according to the invention (Estradiol Sulfamate or E2MATE) on the embryonic and foetal development of the rat was investigated when administered during the period of organogenesis (Days 6 to 17 of gestation). Four groups each of 20 time-mated female Sprague-Dawley rats were dosed with 0 (Control), 7.5, 22 or 60 μg/kg/day of Estardiol sulfamate from Day 6 to Day 17 of gestation. A further group of twenty females was dosed with ethinylestradiol at 80 μg/kg/day and acted as a positive control.
Clinical observations, bodyweight and food consumption were recorded and the progress and outcome of pregnancy was assessed on Day 20 of gestation. Foetal pathology to assess abnormalities and variations was carried out on all foetuses.

[3] = test system: time-mated female New Zealand White rabbits; test: Developmental toxicity in the rabbit; format: in vivo
Source text: The safety of a use of a steroid sulfatase inhibitor according to the invention, measured by no or minor effects induced on foetus development during gestation in pregnant rabbit can be investigated as follows.
The effects of a steroid sulfatase inhibitor according to the invention (Estradiol Sulfamate or E2MATE) on the embryonic and foetal development of the rabbit when administered during the period of organogenesis (Days 6 to 18 of gestation). Four groups each of between 20 to 25 time-mated female New Zealand White rabbits were dosed with 0 (Control), 5, 15 or 50 μg/kg/day from Day 6 to Day 18 of gestation. A further group of twenty females was administered with ethinylestradiol at 50 μg/kg/day and acted as a positive control. Clinical observations, bodyweight and food consumption were recorded and the progress and outcome of pregnancy was assessed on Day 28 of gestation. Foetal pathology to assess abnormalities and variations was carried out on all foetuses

[4] = 1 h post-dose, 1 mg/kg i.g., pregnant albino rats, semi-quantitative
[5] = dosed Day 6 to Day 17 of gestation
[6] = dosed Day 6 to Day 18 of gestation

SMILES	Distribution of radiolabel in pregnant albino animals compared to female albino rats ([1]; 1 mg/kg 14C-labeled, intragastric, pregnant (18 day p.c.) albino rats)	14C-concentrations in pregnant animals versus non-pregnant animals ([1]; 1 h post-dose, 1 mg/kg i.g.)	14C-radiolabel concentration in foetal liver [1, 4]	14C-radiolabel concentration in foetal membranes [1, 4]	14C-radiolabel concentration in mammary gland [1, 4]	14C-radiolabel concentration in placenta [1, 4]	14C-radiolabel concentration in the foetus [1, 4]	14C-concentrations (foetus, foetal liver, placenta, mammary gland, foetal membranes) ([1]; 7 h and 1 day post dose, 1 mg/kg i.g., pregnant albino rats)	general radiolabel concentration in pregnant animals versus non-pregnant animals ([1]; after 7 h, 1 mg/kg i.g.)	Passage of the placental barrier ([1]; pregnant albino rats)	Effects in foetuses / teratogenic action ([2]; at about 22 μg/kg/day)	No Observed Adverse Effect Level (NOAEL) for foetal development [2, 5]	No Observed Effect Level (NOEL) for female toxicity [2, 5]	Observed female toxicity at the higher doses ([2]; doses above 7.5 μg/kg/day (22 or 60 μg/kg/day))	No Observed Adverse Effect Level (NOAEL) for embryofoetal development [3, 6]	No Observed Adverse Effect Level for maternal toxicity during the period of organogenesis [3, 6]	Dosage-related maternal effects at higher doses ([3]; doses above 5 μg/kg/day (15 or 50 μg/kg/day))	Tolerance by the females compared with ethinylestradiol (positive control) ([3]; ethinylestradiol at 50 μg/kg/day)
C[C@]12CC[C@@H]3c4ccc(OS(N)(=O)=O)cc4CC[C@H]3[C@@H]1CC[C@@H]2O [Estradiol Sulfamate]	similar	slightly higher	high range	medium	medium	high range	high range	between the higher low and the lower high range	lower	passed the placental barrier reversibly	some minor effects in foetuses but no teratogenic action	about 22 μg/kg/day	about 7.5 μg/kg/day	limited to reduced food consumption and an associated reduction in bodyweight gain during gestation	about 15 μg/kg/day	about 5 μg/kg/day	limited to lower bodyweight gain and food consumption	generally better tolerated
CC12CCC3c4ccc(OS(N)(=O)=O)cc4CCC3C1CCC2=O (stereo not shown) [Estrone Sulfamate]										passed the placental barrier reversibly								
